According to PubChem BioAssay AID192 (DTP/NCI, 2004):
Where “and” joins values, the source holds several entries; their conditions need not be identical. Equal entries are not always repeated. Inconclusive results and toxic doses are left out.

Tested on: BDF1 mice, B16 melanoma ip, median survival T/C
Test: NCI In Vivo Anticancer Drug Screen. Data for tumor model B16 Melanoma (intraperitoneal) in B6D2F1 (BDF1) mice
Conditions: endpoint: median survival time, schedule: Q01DX009 (ip), higher = longer survival
Method in brief: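 Compounds were tested in mice carrying transplantable tumors. Survival or tumor size was recorded, and each value is the treated-group measurement (T) divided by that of the vehicle-treated control group (C).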

[1] = dose: 50.0 mg/kg/injection, vehicle: saline with Tween-80
[2] = dose: 100.0 mg/kg/injection, vehicle: saline with Tween-80
[3] = dose: 200.0 mg/kg/injection, vehicle: saline with Tween-80
[4] = dose: 400.0 mg/kg/injection, vehicle: saline with Tween-80
[5] = dose: 6.25 mg/kg/injection, vehicle: saline with Tween-80
[6] = dose: 12.5 mg/kg/injection, vehicle: saline with Tween-80
[7] = dose: 25.0 mg/kg/injection, vehicle: saline with Tween-80

With `CN1N=C(N)c2cn(C3OC(COP(=O)(O)O)C(O)C3O)c3ncnc1c23` (stereo not drawn) the T/C (dose: 6.25 mg/kg/injection, vehicle: water) was 89 % of control and 92 % of control, the T/C (dose: 12.5 mg/kg/injection, vehicle: water) was 90 % of control and the T/C (dose: 25.0 mg/kg/injection, vehicle: water) was 93 % of control. For the same compound, the T/C (dose: 50.0 mg/kg/injection, vehicle: water) was 96 % of control and the T/C (dose: 100.0 mg/kg/injection, vehicle: water) was 88 % of control.

In the case of `Cc1ccccc1OCC(O)CO` (stereo not drawn), the T/C [1] is reported as 92 % of control, the T/C [2] is reported as 110 % of control and the T/C [3] is reported as 110 % of control. For the same compound, the T/C [4] was 105 % of control.

In the case of `CCC(C)Nc1ccc(N)cc1` (stereo not drawn), the T/C (dose: 0.09 mg/kg/injection, vehicle: Klucel (hydroxypropylcellulose) (HPC)) is reported as 97 % of control, the T/C (dose: 0.18 mg/kg/injection, vehicle: Klucel (hydroxypropylcellulose) (HPC)) is reported as 99 % of control and the T/C (dose: 0.37 mg/kg/injection, vehicle: Klucel (hydroxypropylcellulose) (HPC)) is reported as 89 % of control. The T/C (dose: 0.75 mg/kg/injection, vehicle: Klucel (hydroxypropylcellulose) (HPC)) was 99 % of control.

For `Nc1ccn(C2OC(COC(=O)C34CC5CC(CC(C5)C3)C4)C(O)C2O)c(=O)n1` (stereo not drawn), the T/C [5] was 115 % of control, the T/C [6] was 153 % of control and the T/C [7] was 155 % of control and 191 % of control.

In the case of `CCOc1ccc(NC(=O)Nc2cccc3ccccc23)cc1`, the T/C (dose: 1.56 mg/kg/injection, vehicle: Klucel (hydroxypropylcellulose) (HPC)) is reported as 91 % of control, the T/C (dose: 3.13 mg/kg/injection, vehicle: Klucel (hydroxypropylcellulose) (HPC)) is reported as 91 % of control and the T/C (dose: 6.25 mg/kg/injection, vehicle: Klucel (hydroxypropylcellulose) (HPC)) is reported as 86 % of control and 91 % of control.

For `CCCCOC(=O)/C=C(\Br)C(=O)OCCCC`, the T/C [5] was 99 % of control and 100 % of control, the T/C [6] was 98 % of control and 104 % of control and the T/C [7] was 86 % of control and 98 % of control. The T/C [1] was 91 % of control and the T/C [2] was 90 % of control.

For `COc1cc2ccc(/C=N/NC(N)=S)cc2cc1OC`, the T/C (dose: 25.0 mg/kg/injection, vehicle: other) was 117 % of control, the T/C (dose: 50.0 mg/kg/injection, vehicle: other) was 108 % of control and the T/C (dose: 100.0 mg/kg/injection, vehicle: other) was 109 % of control. For the same compound, the T/C (dose: 200.0 mg/kg/injection, vehicle: other) was 96 % of control.

In the case of `CS/C([S-])=N/[NH-].CS/C([S-])=N/[NH-].[Pd]`, the T/C (dose: 3.13 mg/kg/injection, vehicle: saline with Tween-80) is reported as 98 % of control, the T/C [5] is reported as 101 % of control and the T/C [6] is reported as 99 % of control.

For `CCN(CC)Cc1c(C)cc2oc(=O)c3c(c2c1O)CCCC3`, the T/C (dose: 16.0 mg/kg/injection, vehicle: Klucel (hydroxypropylcellulose) (HPC)) was 98 % of control, the T/C (dose: 32.0 mg/kg/injection, vehicle: Klucel (hydroxypropylcellulose) (HPC)) was 100 % of control and the T/C (dose: 64.0 mg/kg/injection, vehicle: Klucel (hydroxypropylcellulose) (HPC)) was 88 % of control.

In the case of `C1CCC2C[N-]CCC2C1.C1CCC2C[N-]CCC2C1.C1CCC2C[N-]CCC2C1.C1CCC2C[N-]CCC2C1.[Cl][Rh][Cl]` (stereo not drawn), the T/C (dose: 0.25 mg/kg/injection, vehicle: saline) is reported as 100 % of control, the T/C (dose: 0.5 mg/kg/injection, vehicle: saline with Tween-80) is reported as 104 % of control and the T/C (dose: 0.5 mg/kg/injection, vehicle: saline) is reported as 104 % of control. The T/C (dose: 1.0 mg/kg/injection, vehicle: saline with Tween-80) was 95 % of control, the T/C (dose: 1.0 mg/kg/injection, vehicle: saline) was 115 % of control and the T/C (dose: 2.0 mg/kg/injection, vehicle: saline with Tween-80) was 92 % of control. The T/C (dose: 2.0 mg/kg/injection, vehicle: saline) was 123 % of control, the T/C (dose: 4.0 mg/kg/injection, vehicle: saline with Tween-80) was 86 % of control and the T/C (dose: 4.0 mg/kg/injection, vehicle: saline) was 115 % of control. The T/C (dose: 8.0 mg/kg/injection, vehicle: saline) was 110 % of control.

`S=c1nc[nH]c2nc[nH]c12.[Ag]` was tested, and the T/C (dose: 300.0 mg/kg/injection, vehicle: carboxymethylcellulose (CMC)) was 118 % of control.

`C1OCN2CSCC12` (stereo not drawn) was tested, and the T/C [6] was 108 % of control, the T/C [7] was 109 % of control and the T/C [1] was 101 % of control. For the same compound, the T/C [2] was 106 % of control.

With `O=C(O)C1CCCCC1C(=O)Nc1ccccc1C(F)(F)F` (stereo not drawn) the T/C [2] was 90 % of control, the T/C [3] was 90 % of control and the T/C [4] was 90 % of control.

With `CC(=O)CC(C)=O.CC(=O)CC(C)=O.O=N[O-].O=N[O-].[Co]` the T/C [6] was 96 % of control, the T/C [7] was 103 % of control and the T/C [1] was 91 % of control.

In the case of `CCCCCCCCC(O)CCCC` (stereo not drawn), the T/C (dose: 100.0 mg/kg/injection, vehicle: Klucel (hydroxypropylcellulose) (HPC)) is reported as 103 % of control, the T/C (dose: 200.0 mg/kg/injection, vehicle: Klucel (hydroxypropylcellulose) (HPC)) is reported as 95 % of control and the T/C (dose: 400.0 mg/kg/injection, vehicle: Klucel (hydroxypropylcellulose) (HPC)) is reported as 103 % of control.
